These are literature values, as cited in publication PMC7400577 (Scientific Reports, 2020).

Series [1] has as its target T1, hGAT2 (Homo sapiens, UniProt Q9NSD5).
T1 construct: expressed in transfected cells
T1 sequence (Q9NSD5 1-602): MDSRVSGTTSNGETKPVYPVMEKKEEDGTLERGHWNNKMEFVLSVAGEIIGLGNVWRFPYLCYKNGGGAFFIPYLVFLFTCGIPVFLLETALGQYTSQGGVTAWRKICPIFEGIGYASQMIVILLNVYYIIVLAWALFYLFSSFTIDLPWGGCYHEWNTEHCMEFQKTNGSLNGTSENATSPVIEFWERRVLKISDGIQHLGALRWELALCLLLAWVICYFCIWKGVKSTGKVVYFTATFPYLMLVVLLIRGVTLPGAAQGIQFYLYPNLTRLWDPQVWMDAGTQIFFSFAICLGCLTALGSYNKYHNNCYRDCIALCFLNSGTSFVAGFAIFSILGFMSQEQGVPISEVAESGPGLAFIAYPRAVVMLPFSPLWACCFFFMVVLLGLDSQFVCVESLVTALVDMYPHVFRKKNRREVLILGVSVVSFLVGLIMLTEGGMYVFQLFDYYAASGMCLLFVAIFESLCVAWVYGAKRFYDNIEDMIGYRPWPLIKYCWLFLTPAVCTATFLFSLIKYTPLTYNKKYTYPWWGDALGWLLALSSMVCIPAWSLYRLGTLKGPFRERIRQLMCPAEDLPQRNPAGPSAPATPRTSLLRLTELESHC
Particulars: [3H]GABA uptake, recombinant hGAT2; adapted from Al-Khawaja et al.; cited from earlier work.

In series [2] the target is T2, hGAT3 (Homo sapiens, UniProt P48066).
T2 construct: expressed in transfected cells
T2 sequence (P48066 1-632): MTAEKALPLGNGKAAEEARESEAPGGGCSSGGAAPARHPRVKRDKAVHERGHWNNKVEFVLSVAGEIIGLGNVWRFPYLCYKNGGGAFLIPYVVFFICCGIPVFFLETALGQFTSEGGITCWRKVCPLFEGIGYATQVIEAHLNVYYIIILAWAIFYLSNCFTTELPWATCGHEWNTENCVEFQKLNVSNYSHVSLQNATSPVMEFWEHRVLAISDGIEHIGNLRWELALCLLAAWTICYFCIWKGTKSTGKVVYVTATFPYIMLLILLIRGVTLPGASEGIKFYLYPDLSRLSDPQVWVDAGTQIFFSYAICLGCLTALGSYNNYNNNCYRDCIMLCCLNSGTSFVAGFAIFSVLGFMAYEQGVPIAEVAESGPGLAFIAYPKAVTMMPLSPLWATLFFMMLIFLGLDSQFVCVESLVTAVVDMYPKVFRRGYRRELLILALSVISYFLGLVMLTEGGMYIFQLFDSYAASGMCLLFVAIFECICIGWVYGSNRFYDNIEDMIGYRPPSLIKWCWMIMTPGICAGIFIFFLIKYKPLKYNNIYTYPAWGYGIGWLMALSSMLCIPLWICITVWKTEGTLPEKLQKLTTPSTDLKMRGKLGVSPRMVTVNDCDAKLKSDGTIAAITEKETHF
As to conditions: [3H]GABA uptake, recombinant hGAT3; adapted from Al-Khawaja et al.; cited from earlier work.

Series [3] concerns the target T3, hBGT1 (Homo sapiens, UniProt P48065).
T3 construct: expressed in transfected cells
T3 sequence (P48065 1-614): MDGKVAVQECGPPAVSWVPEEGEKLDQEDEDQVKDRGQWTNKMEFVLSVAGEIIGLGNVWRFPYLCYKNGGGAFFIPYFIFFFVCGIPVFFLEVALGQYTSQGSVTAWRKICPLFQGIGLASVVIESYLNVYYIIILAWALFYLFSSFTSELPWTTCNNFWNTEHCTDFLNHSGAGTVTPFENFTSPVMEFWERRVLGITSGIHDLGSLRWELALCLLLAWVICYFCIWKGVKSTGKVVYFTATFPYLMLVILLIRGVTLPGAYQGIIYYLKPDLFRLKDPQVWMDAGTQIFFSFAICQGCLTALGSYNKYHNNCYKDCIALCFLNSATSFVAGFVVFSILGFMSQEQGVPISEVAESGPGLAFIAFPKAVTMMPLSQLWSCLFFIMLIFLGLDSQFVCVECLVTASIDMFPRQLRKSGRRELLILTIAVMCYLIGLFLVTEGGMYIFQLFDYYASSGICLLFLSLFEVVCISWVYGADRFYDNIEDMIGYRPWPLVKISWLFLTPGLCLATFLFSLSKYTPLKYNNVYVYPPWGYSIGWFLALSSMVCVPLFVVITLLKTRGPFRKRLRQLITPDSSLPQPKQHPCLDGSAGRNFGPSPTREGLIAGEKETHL
Particulars: previously demonstrated; cited from earlier work.

One may read the IC50 as the concentration needed to halve the response being measured. For `NC1=NCC(C(=O)O)CN1` (centres unmarked) [ATPCA, 2-amino-1,4,5,6-tetrahydropyrimidine-5-carboxylic acid, reference compound], in series [1], the IC50 is 41 µM and the “pIC50 ± S.E.M. hGAT2” value was 4.39 ± 0.09. Further, in series [2], the IC50 is 99 µM and the “pIC50 ± S.E.M. hGAT3” value is listed as 4.00 ± 0.03. In series [3], the “substrate character at hBGT1 in FMP assay” value is on record as “substrate for hBGT1”.
